Experimental data published in patent US20230081426A1, “COMPOUNDS AND METHODS FOR KRAS MODULATION AND INDICATIONS THEREFOR” (Plexxikon Inc., priority 2020, published 2023).

Columns and labels:
[1] = target: T1, G12V-mutant human KRAS (amino acid residues 1-188) (Homo sapiens, UniProt P01116, G12V); experiment: KRAS Binding Competition Assay (AlphaScreen; biotinylated KRpep-2d analogue), G12V; details: geometric mean, read-out: KRAS GMean IC50 (uM) MUTATION: G12V
T1 construct: G12V-mutant human KRAS (amino acid residues 1-188) with FLAG tag was purified from E. coli; made in house; host or cells: E. coli

[2] = target: T2, G12D-mutant human KRAS (amino acid residues 1-188) (Homo sapiens, UniProt P01116, G12D); experiment: KRAS Binding Disruption Assay (AlphaScreen; biotinylated KRpep-2d analogue or RAF1-RBD), G12D; details: KRAS G12D; geometric mean; read-out: KRAS GMean IC50 (uM) MUTATION: G12D
T2 construct: G12D or G12C-mutant human KRAS (amino acid residues 1-188) with FLAG tag; made in house; host or cells: E. coli
Outline: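 AlphaScreen readout: signal falls as compound displaces biotinylated KRpep-2d analogue or RAF1-RBD from mutant KRAS. Both partners at 5-20 nM, 1 h binding at 25° C, then 10 μg/mL Anti-Flag acceptor and streptavidin donor beads for 1 h. IC50 by nonlinear regression of % inhibition.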

SMILES | IC50 [1] [µM] | IC50 [2] [µM]
CN1CCC[C@H]1COc1nc(N2C[C@H]3CC[C@@H](C2)N3)c2ccc(-c3cnc(N)nc3C(F)(F)F)cc2n1 [P-0180, 5-(4-((1R,5S)-3,8-diazabicyclo[3.2.1]octan-3-yl)-2-(((S)-1-methylpyrrolidin-2-yl)methoxy)quinazolin-7-yl)-4-(trifluoromethyl)pyrimidin-2-amine] | 100 to 1000 | 10 to 100
CN1CCC[C@H]1COc1nc(N2C[C@H]3CC[C@@H](C2)N3)c2ccc(-c3ccc(CO)s3)cc2n1 [P-0182, (5-(4-((1R,5S)-3,8-diazabicyclo[3.2.1]octan-3-yl)-2-(((S)-1-methylpyrrolidin-2-yl)methoxy)quinazolin-7-yl)thiophen-2-yl)methanol] | 100 to 1000 | 100 to 1000
CN1CCC[C@H]1COc1nc(N2CC3CCC2CN3)c2ccc(-c3cc(O)cc4ccccc34)cc2n1 (stereo partly drawn) [P-0050, 4-(4-(2,5-diazabicyclo[2.2.2]octan-2-yl)-2-(((S)-1-methylpyrrolidin-2-yl)methoxy)quinazolin-7-yl)naphthalen-2-ol] | 10 to 100 | 0.0001 to 10
O=C(NC1CCCC1)N1[C@@H]2CC[C@H]1CN(c1nc(OCC34CCCN3CCC4)nc3cc(-c4cc(O)cc5ccccc45)ccc13)C2 [P-0075, (1R,5S)-N-cyclopentyl-3-(7-(3-hydroxynaphthalen-1-yl)-2-((tetrahydro-1H-pyrrolizin-7a(5H)-yl)methoxy)quinazolin-4-yl)-3,8-diazabicyclo[3.2.1]octane-8-carboxamide] | 0.0001 to 10 | 0.0001 to 10
CCN1CCC(NC(=O)N2C[C@H]3CC[C@@H](C2)N3c2nc(OC[C@@H]3CCCN3C)nc3cc(-c4cc(O)cc5ccccc45)ccc23)C1 (stereo partly drawn) [P-0215, (1R,5S)-N-(1-ethylpyrrolidin-3-yl)-8-(7-(3-hydroxynaphthalen-1-yl)-2-(((S)-1-methylpyrrolidin-2-yl)methoxy)quinazolin-4-yl)-3,8-diazabicyclo[3.2.1]octane-3-carboxamide] | 100 to 1000 | 10 to 100
CC(=O)OCC(=O)N1[C@@H]2CC[C@H]1CN(c1nc(OCC34CCCN3CCC4)nc3cc(-c4cc(O)cc5ccccc45)ccc13)C2 [P-0089, 2-((1R,5S)-3-(7-(3-hydroxynaphthalen-1-yl)-2-((tetrahydro-1H-pyrrolizin-7a(5H)-yl)methoxy)quinazolin-4-yl)-3,8-diazabicyclo[3.2.1]octan-8-yl)-2-oxoethyl acetate] | 0.0001 to 10 | 0.0001 to 10
O=C(N[C@@H]1C[C@H]2CC[C@@H]1O2)N1[C@@H]2CC[C@H]1CN(c1nc(OCC34CCCN3CCC4)nc3cc(-c4cc(O)cc5ccccc45)ccc13)C2 [P-0140, (1R,5S)-N-((1S,2R,4R)-7-oxabicyclo[2.2.1]heptan-2-yl)-3-(7-(3-hydroxynaphthalen-1-yl)-2-((tetrahydro-1H-pyrrolizin-7a(5H)-yl)methoxy)quinazolin-4-yl)-3,8-diazabicyclo[3.2.1]octane-8-carboxamide] | 0.0001 to 10 | 0.0001 to 10
CC(=O)Nc1ccc(F)c(-c2ccc3c(N4C[C@H]5CC[C@@H](C4)N5)nc(OC[C@@H]4CCCN4C)nc3c2)c1 [P-0167, N-(3-(4-((1R,5S)-3,8-diazabicyclo[3.2.1]octan-3-yl)-2-(((S)-1-methylpyrrolidin-2-yl)methoxy)quinazolin-7-yl)-4-fluorophenyl)acetamide] | 100 to 1000 | 100 to 1000
CN1CCC[C@H]1COc1nc(N2C[C@H]3CC[C@@H](C2)N3)c2ccc(-c3ccccc3O)cc2n1 [P-0169, 2-(4-((1R,5S)-3,8-diazabicyclo[3.2.1]octan-3-yl)-2-(((S)-1-methylpyrrolidin-2-yl)methoxy)quinazolin-7-yl)phenol] | 100 to 1000 | 100 to 1000
CC(=O)Nc1cncc(-c2ccc3c(N4C[C@H]5CC[C@@H](C4)N5)nc(OC[C@@H]4CCCN4C)nc3c2)c1 [P-0160, N-(5-(4-((1R,5S)-3,8-diazabicyclo[3.2.1]octan-3-yl)-2-(((S)-1-methylpyrrolidin-2-yl)methoxy)quinazolin-7-yl)pyridin-3-yl)acetamide] | 100 to 1000 | 100 to 1000
CN1CCC[C@H]1COc1nc(N2[C@@H]3CC[C@H]2CN(C(=O)CCC(N)=O)C3)c2ccc(-c3cc(O)cc4ccccc34)cc2n1 [P-0218, 4-((1R,5S)-8-(7-(3-hydroxynaphthalen-1-yl)-2-(((S)-1-methylpyrrolidin-2-yl)methoxy)quinazolin-4-yl)-3,8-diazabicyclo[3.2.1]octan-3-yl)-4-oxobutanamide] | 10 to 100 | 10 to 100

Now from value to molecule:

IC50 [1] [µM] | IC50 [2] [µM] | SMILES
10 to 100 | 0.0001 to 10 | CCN1CC[C@H](NC(=O)N2[C@@H]3CC[C@H]2CN(c2nc(OCC4CCCN4C)nc4c(F)c(-c5cc(O)cc6ccccc56)ccc24)C3)C1 (stereo partly drawn) [P-0418, (1R,5S)-N-((S)-1-ethylpyrrolidin-3-yl)-3-(8-fluoro-7-(3-hydroxynaphthalen-1-yl)-2-((1-methylpyrrolidin-2-yl)methoxy)quinazolin-4-yl)-3,8-diazabicyclo[3.2.1]octane-8-carboxamide]
10 to 100 | 10 to 100 | CN1CCC[C@H]1COc1nc(N2[C@@H]3CC[C@H]2CNC3)c2ccc(-c3cncc(Br)c3Cl)cc2n1 [P-0260, 4-((1R,5S)-3,8-diazabicyclo[3.2.1]octan-8-yl)-7-(5-bromo-4-chloropyridin-3-yl)-2-(((S)-1-methylpyrrolidin-2-yl)methoxy)quinazoline]
100 to 1000 | 10 to 100 | CN1CCC[C@H]1COc1nc(N2C[C@H]3CC[C@@H](C2)N3)c2ccc(-c3c[nH]c4ccc(Cl)cc34)cc2n1 [P-0253, 4-((1R,5S)-3,8-diazabicyclo[3.2.1]octan-3-yl)-7-(5-chloro-1H-indol-3-yl)-2-(((S)-1-methylpyrrolidin-2-yl)methoxy)quinazoline]
10 to 100 | 0.0001 to 10 | CN(C)CCc1nc(N2C[C@H]3CC[C@@H](C2)N3)c2ccc(-c3cc(O)cc4ccccc34)c(F)c2n1 [P-0413]
0.0001 to 10 | 0.0001 to 10 | CN(C)c1ccc(/C=C/c2nc(N3C[C@H]4CC[C@@H](C3)N4)c3cc(Cl)c(-c4c(O)cccc4F)c(F)c3n2)cc1 [P-0355, 2-(4-((1R,5S)-3,8-diazabicyclo[3.2.1]octan-3-yl)-6-chloro-2-((E)-4-(dimethylamino)styryl)-8-fluoroquinazolin-7-yl)-3-fluorophenol]
10 to 100 | 10 to 100 | CN1CCC[C@H]1COc1nc(N2[C@@H]3CC[C@H]2CN(C(=O)CC2SC(=O)NC2=O)C3)c2ccc(-c3cc(O)cc4ccccc34)cc2n1 (stereo partly drawn) [P-0292, 5-(2-((1R,5S)-8-(7-(3-hydroxynaphthalen-1-yl)-2-(((S)-1-methylpyrrolidin-2-yl)methoxy)quinazolin-4-yl)-3,8-diazabicyclo[3.2.1]octan-3-yl)-2-oxoethyl)thiazolidine-2,4-dione]
10 to 100 | 0.0001 to 10 | Fc1c(-c2c(C(F)(F)F)ccc3[nH]ncc23)ccc2c(N3C[C@H]4CC[C@@H](C3)N4)nc(OCC34CCCN3CCC4)nc12 [P-0506, 4-((1R,5S)-3,8-diazabicyclo[3.2.1]octan-3-yl)-8-fluoro-2-((tetrahydro-1H-pyrrolizin-7a(5H)-yl)methoxy)-7-(5-(trifluoromethyl)-1H-indazol-4-yl)quinazoline]
100 to 1000 | 10 to 100 | C[C@@H](O)C(=O)N1C[C@H]2CC[C@@H](C1)N2c1nc(OC[C@@H]2CCCN2C)nc2cc(-c3cc(O)cc4ccccc34)ccc12 [P-0220, (R)-2-hydroxy-1-((1R,5S)-8-(7-(3-hydroxynaphthalen-1-yl)-2-(((S)-1-methylpyrrolidin-2-yl)methoxy)quinazolin-4-yl)-3,8-diazabicyclo[3.2.1]octan-3-yl)propan-1-one]
100 to 1000 | 10 to 100 | COc1ccc2[nH]cc(-c3ccc4c(N5C[C@H]6CC[C@@H](C5)N6)nc(OC[C@@H]5CCCN5C)nc4c3F)c2c1 [P-0314, 4-((1R,5S)-3,8-diazabicyclo[3.2.1]octan-3-yl)-8-fluoro-7-(5-methoxy-1H-indol-3-yl)-2-(((S)-1-methylpyrrolidin-2-yl)methoxy)quinazoline]
0.0001 to 10 | 0.0001 to 10 | CN1CCC[C@H]1COc1nc(N2C[C@H]3CC[C@@H](C2)N3CC(O)CO)c2ccc(-c3cc(O)cc4ccccc34)c(F)c2n1 (stereo partly drawn) [P-0472, 3-((1R,5S)-3-(8-fluoro-7-(3-hydroxynaphthalen-1-yl)-2-(((S)-1-methylpyrrolidin-2-yl)methoxy)quinazolin-4-yl)-3,8-diazabicyclo[3.2.1]octan-8-yl)propane-1,2-diol]
10 to 100 | 0.0001 to 10 | CN1CC[C@@H](NC(=O)N2[C@H]3CC[C@@H]2CN(c2nc(OC[C@@H]4CCCN4C)nc4c(F)c(-c5cc(O)cc6ccccc56)ccc24)CC3)C1 [P-0246, (1R,6S)-3-(8-fluoro-7-(3-hydroxynaphthalen-1-yl)-2-(((S)-1-methylpyrrolidin-2-yl)methoxy)quinazolin-4-yl)-N-((R)-1-methylpyrrolidin-3-yl)-3,9-diazabicyclo[4.2.1]nonane-9-carboxamide]
0.0001 to 10 | 0.0001 to 10 | Oc1cc(-c2ccc3c(N4C[C@H]5CC[C@@H](C4)N5)nc(N4CC(N5CC(O)C5)C4)nc3c2F)c2ccccc2c1 [P-0632, 1′-(4-((1R,5S)-3,8-diazabicyclo[3.2.1]octan-3-yl)-8-fluoro-7-(3-hydroxynaphthalen-1-yl)quinazolin-2-yl)-[1,3′-biazetidin]-3-ol]
10 to 100 | 10 to 100 | CN1CCC[C@H]1COc1nc(N2[C@@H]3CC[C@H]2CNC3)c2ccc(-c3c(O)cccc3Cl)cc2n1 [P-0290, 2-(4-((1R,5S)-3,8-diazabicyclo[3.2.1]octan-8-yl)-2-(((S)-1-methylpyrrolidin-2-yl)methoxy)quinazolin-7-yl)-3-chlorophenol]
